Experiments:
[1] = Ratio of the binding affinity towards CB1 receptor to that of CB2 receptor
Cannabinoid receptor 1 [2] = molecular target: T1, Cannabinoid receptor 1 (Rattus norvegicus, UniProt P20272); assay: Binding affinity to displace [3H]CP-55940 from CB1 receptor of rat brain
Cannabinoid receptor 2 [3] = molecular target: T2, Cannabinoid receptor 2 (Homo sapiens, UniProt P34972); assay: Binding affinity to displace [3H]CP-55940 from cloned human CB2 receptor
Cannabinoid receptor 2 [4] = molecular target: T2, Cannabinoid receptor 2; assay: Percent maximal effectiveness for stimulation of [35S]GTP-gamma-S, binding at CB2 receptor in presence of 3 uM CP-55940; assay type: functional
Cannabinoid receptor 2 [5] = molecular target: T2, Cannabinoid receptor 2; assay: Effective concentration for stimulation of [35S]GTP-gamma-S, binding at CB2 receptor in presence of 3 uM CP-55940; assay type: functional
Cannabinoid receptor 1 [6] = molecular target: T1, Cannabinoid receptor 1; assay: Effective concentration for stimulation of [35S]GTP-gamma-S binding at CB1 receptor in presence of 10 uM WIN-55212-2; assay type: functional

T2 sequence (P34972 whole entry): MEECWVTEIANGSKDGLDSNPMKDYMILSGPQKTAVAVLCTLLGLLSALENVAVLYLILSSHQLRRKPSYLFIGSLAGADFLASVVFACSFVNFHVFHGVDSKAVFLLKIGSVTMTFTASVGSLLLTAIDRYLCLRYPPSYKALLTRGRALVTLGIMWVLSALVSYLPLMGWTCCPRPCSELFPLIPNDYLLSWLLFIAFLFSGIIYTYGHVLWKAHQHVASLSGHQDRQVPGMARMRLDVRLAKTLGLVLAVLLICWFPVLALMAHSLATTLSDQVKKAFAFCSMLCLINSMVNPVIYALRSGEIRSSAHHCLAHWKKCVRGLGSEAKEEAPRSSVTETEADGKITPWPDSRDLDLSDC
T1 sequence (P20272 whole entry): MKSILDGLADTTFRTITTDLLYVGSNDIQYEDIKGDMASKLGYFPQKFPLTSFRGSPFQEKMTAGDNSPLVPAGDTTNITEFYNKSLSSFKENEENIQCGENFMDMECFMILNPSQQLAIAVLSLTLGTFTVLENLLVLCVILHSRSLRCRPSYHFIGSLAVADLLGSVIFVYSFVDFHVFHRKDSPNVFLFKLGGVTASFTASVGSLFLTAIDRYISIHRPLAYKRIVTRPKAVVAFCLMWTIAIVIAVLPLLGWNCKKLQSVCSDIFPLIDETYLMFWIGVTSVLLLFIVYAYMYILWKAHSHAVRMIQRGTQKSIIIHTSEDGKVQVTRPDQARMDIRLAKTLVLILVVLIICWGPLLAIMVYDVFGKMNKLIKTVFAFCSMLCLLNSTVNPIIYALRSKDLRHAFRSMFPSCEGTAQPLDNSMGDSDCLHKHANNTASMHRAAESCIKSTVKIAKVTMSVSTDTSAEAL

Structure (SMILES) | Ratio [1] | Ki (Cannabinoid receptor 1 [2]) [nM] | Ki (Cannabinoid receptor 2 [3]) [nM] | Emax (Cannabinoid receptor 2 [4]) [%] | EC50 (Cannabinoid receptor 2 [5]) [nM] | EC50 (Cannabinoid receptor 1 [6]) [nM]
CCCCCn1c(C)c(C(=O)Cc2ccccc2F)c2ccccc21 | 0.51 | 39 | 76 | – | – | –
CCCCCn1c(C)c(C(=O)Cc2ccccc2OC)c2ccccc21 | 0.3 | 25 | 82 | – | – | –
CCCCCn1c(C)c(C(=O)Cc2cccc(F)c2)c2ccccc21 | 2.4 | 430 | 182 | – | – | –
CCCCCn1c(C)c(C(=O)Cc2ccccc2Br)c2ccccc21 | 0.52 | 15 | 29 | – | – | –
CCCCCn1cc(C(=O)Cc2ccccc2Cl)c2ccccc21 | 1.1 | 8 | 7 | – | – | –
CCCCCn1cc(C(=O)Cc2cccc(Cl)c2)c2ccccc21 | 0.36 | 38 | 106 | – | – | –
CCCCCn1c(C)c(C(=O)Cc2ccccc2Cl)c2ccccc21 | 0.52 | 13 | 25 | – | – | –
CCCCCn1cc(C(=O)Cc2ccccc2OC)c2ccccc21 | 0.33 | 11 | 33 | – | – | –
CCCCCn1c(C)c(C(=O)Cc2cccc(OC)c2)c2ccccc21 | 0.74 | 62 | 84 | – | – | –
CCCCCn1cc(C(=O)Cc2ccc(F)cc2)c2ccccc21 | 1.2 | 422 | 365 | – | – | –
CCCCCn1cc(C(=O)Cc2ccc(Cl)cc2)c2ccccc21 | 0.78 | 389 | 498 | – | – | –
CCCCCn1cc(C(=O)Cc2ccccc2C)c2ccccc21 | 0.2 | 29 | 146 | 47 | 8.3 | 29
CCCCCn1c(C)c(C(=O)Cc2ccccc2)c2ccccc21 | 0.69 | 124 | 180 | – | – | –
CCCCCn1cc(C(=O)Cc2ccccc2)c2ccccc21 | 0.57 | 90 | 159 | – | – | –
CCCCCn1cc(C(=O)Cc2ccccc2Br)c2ccccc21 | 0.42 | 8.4 | 20 | – | – | –
CCCCCn1cc(C(=O)Cc2ccc(C)cc2)c2ccccc21 | 0.31 | 179 | 570 | – | – | –
CCCCCn1cc(C(=O)Cc2ccc(Br)cc2)c2ccccc21 | 1.6 | – | 657 | – | – | –
CCCCCn1c(C)c(C(=O)Cc2ccc(C)cc2)c2ccccc21 | 0.55 | 746 | 1350 | – | – | –
CCCCCn1c(C)c(C(=O)Cc2ccccc2C)c2ccccc21 | 1.2 | 23 | 19 | – | – | –
CCCCCn1c(C)c(C(=O)Cc2ccc(Cl)cc2)c2ccccc21 | 0.43 | 1600 | 3720 | – | – | –
CCCCCn1c(C)c(C(=O)Cc2ccc(OC)cc2)c2ccccc21 | 2.6 | 1680 | 645 | – | – | –
CCCCCn1cc(C(=O)Cc2cccc(OC)c2)c2ccccc21 | 0.19 | 17 | 89 | 33.5 | 24.4 | 29.3
CCCCCn1c(C)c(C(=O)Cc2ccc(F)cc2)c2ccccc21 | 3.7 | 2860 | 781 | – | – | –
CCCCCn1cc(C(=O)Cc2cccc(F)c2)c2ccccc21 | 0.79 | 72 | 91 | – | – | –
CCCCCn1c(C)c(C(=O)Cc2cccc(Cl)c2)c2ccccc21 | 0.85 | 117 | 138 | – | – | –
CCCCCn1cc(C(=O)Cc2ccccc2F)c2ccccc21 | 0.6 | 23 | 39 | – | – | –
CCCCCn1cc(C(=O)Cc2ccc(OC)cc2)c2ccccc21 | 2.4 | 1060 | 444 | – | – | –
CCCCCn1c(C)c(C(=O)Cc2ccc(Br)cc2)c2ccccc21 | 1.2 | – | 2680 | – | – | –

Source: ChEMBL document CHEMBL1140358, “1-Pentyl-3-phenylacetylindoles, a new class of cannabimimetic indoles” (Bioorg Med Chem Lett, 2005)
